Source: patent US20260308108A1, “COMPOSITIONS AND METHODS FOR THE TREATMENT OF OCULAR DISORDERS” (Case Western Reserve University, priority 2023, published 2026)
Values joined by “and” are separate entries in the source; they are usually repeats but may differ in a detail not shown here. Equal entries are not always repeated. “Also recorded” adds a separate entry of the source. Where two headings read alike, the source gives them in different places.

How the values were obtained:
[1] = target: RPE65 (Bos taurus, UniProt Q28175); assay: RPE65 activity assay in vitro (11-cis-retinol production by bovine RPE microsomes); conditions: for RPE65 inhibition (in words): in vitro
RPE65 (Bos taurus, UniProt Q28175), sequence (Q28175 whole entry): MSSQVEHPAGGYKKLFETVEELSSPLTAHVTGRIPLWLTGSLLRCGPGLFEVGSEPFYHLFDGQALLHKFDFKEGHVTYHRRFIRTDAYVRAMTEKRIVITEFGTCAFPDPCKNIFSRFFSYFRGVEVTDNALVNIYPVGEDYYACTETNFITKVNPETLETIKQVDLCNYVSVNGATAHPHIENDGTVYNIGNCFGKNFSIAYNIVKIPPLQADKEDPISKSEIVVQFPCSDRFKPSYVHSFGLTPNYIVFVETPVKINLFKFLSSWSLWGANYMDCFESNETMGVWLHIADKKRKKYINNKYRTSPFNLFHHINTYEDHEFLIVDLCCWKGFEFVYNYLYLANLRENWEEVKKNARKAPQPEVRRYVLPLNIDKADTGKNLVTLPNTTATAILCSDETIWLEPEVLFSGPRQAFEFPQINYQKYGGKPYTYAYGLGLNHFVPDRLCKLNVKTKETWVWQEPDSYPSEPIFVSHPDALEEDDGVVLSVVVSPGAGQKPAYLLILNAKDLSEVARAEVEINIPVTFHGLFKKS

[2] = test system: RPE65; conditions: 10 mg/kg IP; for 11cRAL / RE: mean ± SD, n = 3 mice
[3] = Observation of animals after treatment (toxicity); assay type: in vivo, BALB/cJ mice; conditions: 10 mg/kg IP; even 24 h after treatment
Excerpt: Vehicle-only and nontreated animals served as controls. […] Three animals were used for each time point.

[4] = in vitro; conditions: mouse, microsomes
[5] = test system: mouse liver microsomes (CYP-450 enzymes)
[6] = target: T1, VAP-1 (Mus musculus, UniProt O70423); assay: VAP-1 oxidation assay (mouse aorta homogenates); conditions: role: substrate; for ACU-5201 (deaminated product) formed / concentration of tested compound in mouse aorta homogenate: 100 μM, mean ± SD, n = 3
T1 sequence (O70423 1-765): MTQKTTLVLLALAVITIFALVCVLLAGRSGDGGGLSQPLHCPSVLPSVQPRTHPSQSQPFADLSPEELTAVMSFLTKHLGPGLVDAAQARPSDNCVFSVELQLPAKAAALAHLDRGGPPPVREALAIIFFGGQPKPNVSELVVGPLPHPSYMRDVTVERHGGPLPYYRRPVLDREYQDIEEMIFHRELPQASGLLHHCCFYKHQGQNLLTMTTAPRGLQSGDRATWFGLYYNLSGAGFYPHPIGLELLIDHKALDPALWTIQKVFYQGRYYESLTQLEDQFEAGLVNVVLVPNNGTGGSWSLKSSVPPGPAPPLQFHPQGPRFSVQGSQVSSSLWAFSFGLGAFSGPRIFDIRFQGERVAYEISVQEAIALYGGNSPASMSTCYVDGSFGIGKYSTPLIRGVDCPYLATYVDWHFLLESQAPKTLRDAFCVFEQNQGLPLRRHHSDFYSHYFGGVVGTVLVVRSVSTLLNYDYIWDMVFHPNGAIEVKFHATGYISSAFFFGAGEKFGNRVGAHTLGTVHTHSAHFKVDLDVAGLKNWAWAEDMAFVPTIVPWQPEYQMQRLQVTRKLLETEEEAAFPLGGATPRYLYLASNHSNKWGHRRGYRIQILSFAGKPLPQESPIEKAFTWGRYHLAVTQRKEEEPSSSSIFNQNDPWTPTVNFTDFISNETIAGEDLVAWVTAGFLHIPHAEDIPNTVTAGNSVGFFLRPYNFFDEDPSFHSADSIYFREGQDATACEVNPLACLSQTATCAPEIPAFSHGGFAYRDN

[7] = test system: VAP-1; conditions: role: substrate; cited from earlier work
[8] = test system: RPE65; conditions: among first targeted inhibitors (amine derivatives of retinol); cited from earlier work
[9] = read-out: IC50 ± SD, bovine RPE microsomes, mean ± SD, n = 3
[10] = bovine RPE microsomes, mean ± SD, n = 3

NCCC(O)c1ccc(OCC2CCCCC2)cc1 (stereo not shown) [Compound 3b, 3-Amino-1-(4-(cyclohexylmethoxy)phenyl)propan-1-ol] showed an IC50 [1] of 8980 ± 3440 nM.

In the case of NCCC(O)c1ccccc1OCC1CCCCC1 (stereo not shown) [Compound 3c, 3-Amino-1-(2-(cyclohexylmethoxy)phenyl)propan-1-ol], the IC50 [1, 9] is reported as 4670 ± 1230 nM.

For NC(CCO)c1cccc(OCC2CCCCC2)c1 (stereo not shown) [Compound 6a, 3-Amino-3-(3-(cyclohexylmethoxy)phenyl)propan-1-ol], the “IC50 ± SD” value [1, 10] was “No Inhibition” and the “RPE65 inhibition (in words)” value [1] was “lack of inhibitory activity; also recorded: no inhibition in vitro”.

For NC(CO)Cc1cccc(OCC2CCCCC2)c1 (stereo not shown) [Compound 6b, 2-Amino-3-(3-(cyclohexylmethoxy)phenyl)propan-1-ol], the “IC50 ± SD” value [1, 10] was “No Inhibition” and the “RPE65 inhibition (in words)” value [1] was “no inhibition in vitro”.

With NC(CO)Cc1ccc(OCC2CCCCC2)cc1 (stereo not shown) [Compound 6c, 2-Amino-3-(4-(cyclohexylmethoxy)phenyl)propan-1-ol] the “IC50 ± SD” value [1, 10] was “No Inhibition” and the “RPE65 inhibition (in words)” value [1] was “lack of dose-response relationship”.

For NCC(O)c1cccc(OCC2CCCCC2)c1 (stereo not shown) [Compound 11a], the “RPE65 inhibition (in words)” value [1] was “substantially less potent than 3a” and the IC50 [1, 9] was 3190 ± 810 nM.

With NCCc1cccc(OCC2CCCCC2)c1 [Compound 11b, 2-(3-(Cyclohexylmethoxy)phenyl)ethan-1-amine] the “RPE65 inhibition in vivo (in words)” value [2] was “did not display hallmarks of inhibited RPE65 activity in vivo”, the 11cRAL ([2]; 0 h after light exposure) was 16.2 ± 16.2 pmol/eye and the RE ([2]; 0 h after light exposure) was 225.1 ± 29.5 pmol/eye. The 11cRAL ([2]; 24 h) was 137.4 ± 44.5 pmol/eye, the RE ([2]; 24 h) was 377.3 ± 54.4 pmol/eye and the IC50 ([1]; bovine RPE microsomes) was 420 ± 110 nM. The “more potent activity toward RPE65 relative to amine 11a” value ([1]; relative to 11a) was 7.6 times.

With CC(CN)c1cccc(OCC2CCCCC2)c1 (stereo not shown) [Compound 11c, 2-(3-(Cyclohexylmethoxy)phenyl)propan-1-amine] the “RPE65 inhibition (in words)” value [1] was “weaker inhibition; also recorded: the lowest level of inhibition” and the IC50 [1, 9] was 6730 ± 260 nM.

For NCCc1ccc(F)c(OCC2CCCCC2)c1 [Compound 11d, 2-(3-(Cyclohexylmethoxy)-4-fluorophenyl)ethan-1-amine], the IC50 [1, 9] was 1230 ± 130 nM and the “decrease in RPE65 inhibition relative to 11b” value ([1]; relative to 11b) was 3 fold.

For NCCCc1cccc(OCC2CCCCC2)c1 [Compound 16a], the IC50 [1, 9] was 1550 ± 300 nM and the “decrease in inhibition of RPE65 relative to 3a” value [1] was 8 fold.

For CC(CCN)c1cccc(OCC2CCCCC2)c1 (stereo not shown) [Compound 16b, 3-(3-(Cyclohexylmethoxy)phenyl)butan-1-amine], the “RPE65 inhibition in vivo (in words)” value [2] was “minor RPE65 inhibition 4 h after treatment, but animals were fully dark-adapted after 24 h”, the 11cRAL ([2]; 0 h after light exposure) was 25.6 ± 2.7 pmol/eye and the RE ([2]; 0 h after light exposure) was 291.5 ± 33.1 pmol/eye. For the same compound, the 11cRAL ([2]; 4 h) was 94.4 ± 11.4 pmol/eye, the RE ([2]; 4 h) was 435.5 ± 27.5 pmol/eye and the 11cRAL ([2]; 24 h) was 370.5 ± 9.1 pmol/eye. The RE ([2]; 24 h) was 123.9 ± 36.4 pmol/eye, the “RPE65 inhibition (in words)” value [1] was “the lowest level of inhibition” and the IC50 [1, 9] was 820 ± 500 nM. For the same compound, the “decrease in inhibition of RPE65 relative to 3a” value [1] was 4 fold, the “potency relative to 16a” value ([1]; relative to 16a) was “roughly doubled” and the “toxicity observed in treated animals” value [3] was “all animals showed impaired body movement even 24 h after treatment”.

For CC(CN)Cc1cccc(OCC2CCCCC2)c1 (stereo not shown) [Compound 16c], the 11cRAL ([2]; 0 h after light exposure) was 17.4 ± 0.8 pmol/eye, the RE ([2]; 0 h after light exposure) was 253.5 ± 22.5 pmol/eye and the 11cRAL ([2]; 4 h) was 323.0 ± 5.1 pmol/eye. For the same compound, the RE ([2]; 4 h) was 111.9 ± 18.5 pmol/eye, the 11cRAL ([2]; 24 h) was 253.5 ± 9.0 pmol/eye and the RE ([2]; 24 h) was 85.6 ± 12.7 pmol/eye. It also gave an IC50 [1] of 590 ± 70 nM.

In the case of CC(CN)Cc1ccc(F)c(OCC2CCCCC2)c1 (stereo not shown) [Compound 16d, 3-(3-(Cyclohexylmethoxy)-4-fluorophenyl)-2-methylpropan-1-amine], the 11cRAL ([2]; 0 h after light exposure) is reported as 23.5 ± 2.3 pmol/eye, the RE ([2]; 0 h after light exposure) is reported as 259.9 ± 54.6 pmol/eye and the 11cRAL ([2]; 4 h) is reported as 398.0±26.6 pmol/eye and 413.2 ± 8.1 pmol/eye. The RE ([2]; 4 h) was 101.1 ± 12.9 pmol/eye, the 11cRAL ([2]; 24 h) was 398.0 ± 26.6 pmol/eye and the RE ([2]; 24 h) was 122.7 ± 30.6 pmol/eye. For the same compound, the “IC50 ± SD” value [1, 10] was “No Inhibition” and the “RPE65 inhibition (in words)” value [1] was “inactive”.

For CNCCC(O)c1cccc(OCC2CCCCC2)c1 (stereo not shown) [Compound 16e, 1-(3-(Cyclohexylmethoxy)phenyl)-3-(methylamino)propan-1-ol], the Km [4] was 39 µM, the Km [5] was 39 µM and the “VAP-1 oxidative metabolism (in words)” value [6] was “resistant to VAP-1 oxidative deamination”. The “ACU-5201 (deaminated product) formed” value ([6]; 0 h) was 0.00 ± 0.00 µM, the “concentration of tested compound in mouse aorta homogenate” value (shortened to “concentration of tested compound”) ([6]; 0 h) was 100.32 ± 0.95 µM and the “ACU-5201 (deaminated product) formed” value ([6]; 1 h) was 0.48 ± 0.68 µM. For the same compound, the “concentration of tested compound” value ([6]; 1 h) was 101.20 ± 0.89 µM, the “ACU-5201 (deaminated product) formed” value ([6]; 4 h) was 3.76 ± 0.29 µM and the “concentration of tested compound” value ([6]; 4 h) was 89.07 ± 0.49 µM. The “reduction of the formation of ACU-5201” value ([6]; 1 h) was “about 99.5%”, the “reduction of the formation of ACU-5201” value ([6]; 4 h) was about 96.25% and the 11cRAL ([2]; 0 h after light exposure) was 13.8 ± 1.5 pmol/eye. For the same compound, the RE ([2]; 0 h after light exposure) was 296.6 ± 65.2 pmol/eye, the 11cRAL ([2]; 4 h) was 22.5 ± 4.5 pmol/eye and the RE ([2]; 4 h) was 393.5 ± 60.0 pmol/eye. For the same compound, the “level of 11cRAL as percent of the dark-adapted level” value ([2]; 24 h) was 53%, the 11cRAL ([2]; 24 h) was 201.8±53.2 pmol/eye and the RE ([2]; 24 h) was 215.4±99.2 pmol/eye and 213.4 ± 99.2 pmol/eye. The “16e level in eye” value (after single IP of 3a, 1 h) was 0.000 pmol/eye, the “16e level in serum” value (after single IP of 3a, 1 h) was 0.00 pmol/mL serum and the “levels in eye and plasma (in words)” value (after single IP of 16e (10 mg/kg)) was “decreased significantly at 4 h and approached baseline levels in both eye and plasma at 24 h after injection”. For the same compound, the “16e level in serum” value (after single IP of 16e, 24 h) was 0.000 pmol/mL serum and the concentration (read-out: 16e level in serum, after single IP of 16e, 4 h, 10 mg/kg) was 0.111 µM.

For COc1cc(NC(C)CCCN)c2ncccc2c1 (stereo not shown) [primaquine], the “VAP-1 metabolism (in words)” value [7] is given as “shown important”.

For CC1=C(/C=C/C(C)=C/C=C/C(C)=C/CN)C(C)(C)CCC1 [retinylamine], the “potency as RPE65 inhibitor (in words)” value [8] is listed as “the most potent among them”.

For N=C(N)NCCCCCCNC(=O)COC(=O)NCCCCNCCCN [tresperimus], the “VAP-1 metabolism (in words)” value [7] is given as “shown important”.
